Reference: patent US20230279016A1, “Tetrahydropyrazolopyrimidines and Related Analogs for Inhibiting YAP/TAZ-TEAD” (THE KATHOLIEKE UNIVERSITEIT LEUVEN, priority 2021, published 2023)

These compounds were tested on YAP/TAZ-TEAD transcription (assay: Reporter gene assay for measuring the inhibition of YAP/TAZ-TEAD transcription (TEAD-responsive element luciferase reporter in Hek293T cells)). Settings: Hek293T cells transiently transfected with TEAD-responsive element luciferase reporter, 24 hours incubation.
Type: cell-based
Method: Hek293T cells are cultured in DMEM supplemented with 10% fetal bovine serum, Sodium pyruvate, Sodium bicarbonate, L-glutamine. The cells are harvested and transiently transfected with TEAD-responsive element luciferase reporter. Transfected cells are plated in 384-wells plate containing pre-diluted compounds. After 24 hours incubation at 37° C./5%CO2, assay plates were cooled down to RT and levelled to an equal volume per well, prior to the addition of 25 uL luciferase substrate SteadyLite (Perkin Elmer)/well. The plate was shaken for 10 min at 600 rpm, centrifuged for 1min at 500 rpm and measured with an Envision reader (PerkinElmer). The amount of relative light units produced by the TEAD reporter is used to calculated percent of inhibition.
The percent of reporter inhibition was calculated in the presence of a positive control inhibitor (100% inhibition) versus a condition with the presence of the vehicle basal activity of the reporter (0% inhibition). The ability of a test compound to inhibit this activity was determined as:
Percentage inhibition=[1-((RLU determined in the presence of vehicle—RLU determined for sample with test compound present) divided by (RLU determined in the presence of vehicle — RLU determined for sample with positive control inhibitor))] * 100
The activities of the example compounds tested are depicted in the table below. The activity ranges A, B and C refer to EC50 values in the reporter gene assay as described as follows: “A”: EC50 <1 μM; “B” : 1 μM≤EC50≤20 μM and “C” : EC50>20 μM, NT=not tested.

SMILES | EC50
C=CC(=O)NCC1CN(c2ccc(C(F)(F)F)cc2)c2cc(C)nn2C1 (single isomer, unassigned) [Cpd. No. 029-En1, (R)- or (S)-N-((2-methyl-4-(4-(trifluoromethyl)phenyl)-4,5,6,7-tetrahydropyrazolo[1,5-a]pyrimidin-6-yl)methyl)acrylamide] | < 1000 nM
C=CC(=O)NCC1CN(c2ccc(C(F)(F)F)cc2)c2cc(C)nn2C1 (single isomer, unassigned) [Cpd. No. 029-En2, (R)- or (S)-N-((2-methyl-4-(4-(trifluoromethyl)phenyl)-4,5,6,7-tetrahydropyrazolo[1,5-a]pyrimidin-6-yl)methyl)acrylamide] | < 1000 nM
C=CC(=O)NCC1CN(c2ccc(OC(F)(F)F)cc2)c2cc(C)nn2C1 (single isomer, unassigned) [Cpd. No. 030-En1, (R)- or (S)-N-((2-methyl-4-(4-(trifluoromethoxy)phenyl)-4,5,6,7-tetrahydropyrazolo[1,5-a]pyrimidin-6-yl)methyl)acrylamide] | < 1000 nM
C=CC(=O)NCC1CN(c2ccc(C(F)(F)F)cc2)c2cc(C#N)nn2C1 (single isomer, unassigned) [Cpd. No. 033-En1, (R)- or (S)-N-((2-cyano-4-(4-(trifluoromethyl)phenyl)-4,5,6,7-tetrahydropyrazolo[1,5-a]pyrimidin-6-yl)methyl)acrylamide] | 1000 to 20000 nM
C=CC(=O)NCC1CN(c2ccc(C(F)(F)F)cc2)c2cc(C#N)nn2C1 (single isomer, unassigned) [Cpd. No. 033-En2, (R)- or (S)-N-((2-cyano-4-(4-(trifluoromethyl)phenyl)-4,5,6,7-tetrahydropyrazolo[1,5-a]pyrimidin-6-yl)methyl)acrylamide] | < 1000 nM
C=CC(=O)NCC1CN(C(=O)C2CCCCC2)c2ccnn2C1 (single isomer, unassigned) [Cpd. No. 046-En1, (R)- or (S)-N-((4-(cyclohexanecarbonyl)-4,5,6,7-tetrahydropyrazolo[1,5-a]pyrimidin-6-yl)methyl)acrylamide] | 1000 to 20000 nM
C=CC(=O)NCC1CN(C(=O)C2CCCCC2)c2ccnn2C1 (single isomer, unassigned) [Cpd. No. 046-En2, (R)- or (S)-N-((4-(cyclohexanecarbonyl)-4,5,6,7-tetrahydropyrazolo[1,5-a]pyrimidin-6-yl)methyl)acrylamide] | 1000 to 20000 nM
C=CC(=O)N1CCC2(C1)CN(c1ccc(C(F)(F)F)cc1)c1ccnn1C2 (single isomer, unassigned) [Cpd. No. 088-En1, (R)- or (S)-1-(4-(4-(trifluoromethyl)phenyl)-4,5-dihydro-7H-spiro[pyrazolo[1,5-a]pyrimidine-6,3′-pyrrolidin]-1′-yl)prop-2-en-1-one] | < 1000 nM
C=CC(=O)N1CCC2(C1)CN(c1ccc(C(F)(F)F)cc1)c1ccnn1C2 (single isomer, unassigned) [Cpd. No. 088-En2, (R)- or (S)-1-(4-(4-(trifluoromethyl)phenyl)-4,5-dihydro-7H-spiro[pyrazolo[1,5-a]pyrimidine-6,3′-pyrrolidin]-1′-yl)prop-2-en-1-one] | < 1000 nM
C=CC(=O)NCC1CN(c2ccc(C(F)(F)F)cc2)c2cnc(C(F)(F)F)n2C1 (single isomer, unassigned) [Cpd. No. 094-En1, (R)- or (S)-N-((6-(trifluoromethyl)-1-(4-(trifluoromethyl)phenyl)-1,2,3,4-tetrahydroimidazo[1,5-a]pyrimidin-3-yl)methyl)acrylamide] | < 1000 nM

Other lines, results leading:

EC50 | SMILES
< 1000 nM | C=CC(=O)NCC1CN(c2ccc(OC(F)(F)F)cc2)c2cc(C)nn2C1 (single isomer, unassigned) [Cpd. No. 030-En2, (R)- or (S)-N-((2-methyl-4-(4-(trifluoromethoxy)phenyl)-4,5,6,7-tetrahydropyrazolo[1,5-a]pyrimidin-6-yl)methyl)acrylamide]
< 1000 nM | C=CC(=O)NCC1CN(c2ccc(C(F)(F)F)cc2)c2cc(C3CC3)nn2C1 (single isomer, unassigned) [Cpd. No. 031-En1, (R)- or (S)-N-((2-cyclopropyl-4-(4-(trifluoromethyl)phenyl)-4,5,6,7-tetrahydropyrazolo[1,5-a]pyrimidin-6-yl)methyl)acrylamide]
< 1000 nM | C=CC(=O)NCC1CN(c2ccc(C(F)(F)F)cc2)c2cc(C3CC3)nn2C1 (single isomer, unassigned) [Cpd. No. 031-En2, (R)- or (S)-N-((2-cyclopropyl-4-(4-(trifluoromethyl)phenyl)-4,5,6,7-tetrahydropyrazolo[1,5-a]pyrimidin-6-yl)methyl)acrylamide]
< 1000 nM | C=CC(=O)NCC1CN(c2ccc(C(F)(F)F)cc2)c2cc(CC3CC3)nn2C1 (single isomer, unassigned) [Cpd. No. 032-En1, (R)- or (S)-N-((2-(cyclopropylmethyl)-4-(4-(trifluoromethyl)phenyl)-4,5,6,7-tetrahydropyrazolo[1,5-a]pyrimidin-6-yl)methyl)acrylamide]
< 1000 nM | C=CC(=O)NCC1CN(c2ccc(C(F)(F)F)cc2)c2cc(CC3CC3)nn2C1 (single isomer, unassigned) [Cpd. No. 032-En2, (R)- or (S)-N-((2-(cyclopropylmethyl)-4-(4-(trifluoromethyl)phenyl)-4,5,6,7-tetrahydropyrazolo[1,5-a]pyrimidin-6-yl)methyl)acrylamide]
< 1000 nM | C=CC(=O)NCC1CN(c2ccc(C(F)(F)F)cc2)c2cc(C(F)(F)F)nn2C1 (single isomer, unassigned) [Cpd. No. 034-En1, (R)- or (S)-N-((2-(trifluoromethyl)-4-(4-(trifluoromethyl)phenyl)-4,5,6,7-tetrahydropyrazolo[1,5-a]pyrimidin-6-yl)methyl)acrylamide]
< 1000 nM | C=CC(=O)NCC1CN(c2ccc(C(F)(F)F)cc2)c2cc(C(F)(F)F)nn2C1 (single isomer, unassigned) [Cpd. No. 034-En2, (R)- or (S)-N-((2-(trifluoromethyl)-4-(4-(trifluoromethyl)phenyl)-4,5,6,7-tetrahydropyrazolo[1,5-a]pyrimidin-6-yl)methyl)acrylamide]
< 1000 nM | C=CC(=O)NC1CN(c2ccc(C(F)(F)F)cc2)c2ccnn2C1 (single isomer, unassigned) [Cpd. No. 061-En1, (R)- or (S)-N-(4-(4-(trifluoromethyl)phenyl)-4,5,6,7-tetrahydropyrazolo[1,5-a]pyrimidin-6-yl)acrylamide]
< 1000 nM | C=CC(=O)NC1CN(c2ccc(C(F)(F)F)cc2)c2ccnn2C1 (single isomer, unassigned) [Cpd. No. 061-En2, (R)- or (S)-N-(4-(4-(trifluoromethyl)phenyl)-4,5,6,7-tetrahydropyrazolo[1,5-a]pyrimidin-6-yl)acrylamide]
< 1000 nM | C=CC(=O)NC1CN(c2ccc(C(F)(F)F)cc2F)c2ccnn2C1 (single isomer, unassigned) [Cpd. No. 065-En2, (R)- or (S)-N-(4-(2-fluoro-4-(trifluoromethyl)phenyl)-4,5,6,7-tetrahydropyrazolo[1,5-a]pyrimidin-6-yl)acrylamide]
> 20000 nM | CS(=O)(=O)N1CCC2(CN(c3ccc(C(F)(F)F)cc3)c3ccnn3C2)C1=O (single isomer, unassigned) [Cpd. No. 089-En2, (R)- or (S)-1′-(methylsulfonyl)-4-(4-(trifluoromethyl)phenyl)-4,5-dihydro-7H-spiro[pyrazolo[1,5-a]pyrimidine-6,3′-pyrrolidin]-2′-one]
> 20000 nM | CN1CCC2(CN(c3ccc(C(F)(F)F)cc3)c3ccnn3C2)C1=O (single isomer, unassigned) [Cpd. No. 090-En2, (R)- or (S)-1′-methyl-4-(4-(trifluoromethyl)phenyl)-4,5-dihydro-7H-spiro[pyrazolo[1,5-a]pyrimidine-6,3′-pyrrolidin]-2′-one]

Same assay, conditions: Homo sapiens, HEK-293T, 24 h, Hek293T cells transiently transfected with TEAD-responsive element luciferase reporter, 24 hours incubation

SMILES | EC50
C=CC(=O)NCC1CN(Cc2ccccc2)c2ccnn2C1 (single isomer, unassigned) [Cpd. No. 049-En2, (R)- or (S)-N-((4-benzyl-4,5,6,7-tetrahydropyrazolo[1,5-a]pyrimidin-6-yl)methyl)acrylamide] | < 1000 nM
CN1CCC2(CN(c3ccc(C(F)(F)F)cc3)c3ccnn3C2)C1=O (single isomer, unassigned) [Cpd. No. 090-En1, (R)- or (S)-1′-methyl-4-(4-(trifluoromethyl)phenyl)-4,5-dihydro-7H-spiro[pyrazolo[1,5-a]pyrimidine-6,3′-pyrrolidin]-2′-one] | > 20000 nM

Continued, values first:

EC50 | SMILES
< 1000 nM | C=CC(=O)NCC1CN(c2ccc(OC(F)(F)F)cc2)c2cc(C(F)(F)F)nn2C1 (single isomer, unassigned) [Cpd. No. 035-En1, (R)- or (S)-N-((4-(4-(trifluoromethoxy)phenyl)-2-(trifluoromethyl)-4,5,6,7-tetrahydropyrazolo[1,5-a]pyrimidin-6-yl)methyl)acrylamide]
> 20000 nM | CS(=O)(=O)N1CCC2(CN(c3ccc(C(F)(F)F)cc3)c3ccnn3C2)C1=O (single isomer, unassigned) [Cpd. No. 089-En1, (R)- or (S)-1′-(methylsulfonyl)-4-(4-(trifluoromethyl)phenyl)-4,5-dihydro-7H-spiro[pyrazolo[1,5-a]pyrimidine-6,3′-pyrrolidin]-2′-one]
